In US5401761A, “Thiazolidinedione hypoglycemic agents” (Pfizer, Inc., priority 1993, dated 1995):

System: OB/OB MOUSE
Test: Hypoglycemic activity in the ob/ob mouse
Type: in vivo, mouse (C57 BL/6J-ob/ob)
Conditions: for ED50 (Present Invention, X = H): concentration required to give hypoglycemic activity equivalent to 50% of the positive control / ED50 (EP 299620A, X = OH): concentration required to give hypoglycemic activity equivalent to 50% of the positive control: ob/ob mouse, dosed daily for five days, positive control ciglitazone 50 mg/kg, 7200 min
Excerpt: The present compounds of the formula (I) are readily adapted to clinical use as hypoglycemic or hypocholesterolemic agents. The activity required for the former clinical use is defined by the test for hypoglycemic effect in ob/ob mice by the following procedure:
Five to eight week old C57 BL/6J-ob/ob mice (obtained from Jackson Laboratory, Bar Harbor, Me.) were housed five per cage under standard animal care practices. After a one week acclimation period, the animals were weighed and 25 microliters of blood was collected via an ocular bleed prior to any treatment. The blood sample was immediately diluted 1:5 with saline containing 2.5 mg/ml sodium fluoride and 2% sodium heparin, and held on ice for metabolite analysis. […] Bull., vol. […] All drugs were administered in a vehicle consisting of 0.25% w/v methyl cellulose. On day 5, the animals were weighed again and bled (via the ocular route) for blood metabolite levels. The freshly collected samples were centrifuged for two minutes at […] at room temperature. The supernatant was analyzed for glucose, for example, by the ABA 200 Bichromatic Analyzer™*, using the A-gent™^1 glucose UV reagent system*^2 (hexokinase method) using 20, 60 and 100 mg/dl standards. Plasma glucose was then calculated by the equation,
Test compounds are reported in terms of % glucose normalization. For example, a glucose level which is the same as the positive control is reported as 100%.

| Structure (SMILES) | ED50 (Present Invention, X = H): concentration required to give hypoglycemic activity equivalent to 50% of the positive control [mg/kg] | ED50 (EP 299620A, X = OH): concentration required to give hypoglycemic activity equivalent to 50% of the positive control [mg/kg] | other results |
| --- | --- | --- | --- |
| Cc1oc(C2CCCCC2)nc1Cc1cc2cc(CC3SC(=O)NC3=O)ccc2o1 (stereo not drawn) [cyclohexyl, X = H, 5-[(2-(2-cyclohexyl-5-methyl-4-oxazolyl)methyl)-5-benzofuranylmethyl]-2,4-thiazolidinedione] | 0.05 | – | – |
| Cc1oc(-c2cccc(F)c2)nc1Cc1cc2cc(CC3SC(=O)NC3=O)ccc2o1 (stereo not drawn) [m-fluorophenyl, X = H, 5-[(2-(2-(3-fluorophenyl)-5-methyl-4-oxazolyl)methyl)-5-benzofuranylmethyl]-2,4-thiazolidinedione] | 0.05 | – | – |
| Cc1oc(-c2cccc(F)c2)nc1C(O)c1cc2cc(CC3SC(=O)NC3=O)ccc2o1 (stereo not drawn) [m-fluorophenyl, X = OH, reference compound] | – | 0.50 | – |
| Cc1cccc(-c2nc(Cc3cc4cc(CC5SC(=O)NC5=O)ccc4o3)c(C)o2)c1 (stereo not drawn) [m-methylphenyl, X = H, 5-[(2-(5-methyl-2-(3-methylphenyl)-4-oxazolyl)-methyl)-5-benzofuranylmethyl]2,4-thiazolidinedione] | < 0.005 | – | – |
| Cc1cccc(-c2nc(C(O)c3cc4cc(CC5SC(=O)NC5=O)ccc4o3)c(C)o2)c1 (stereo not drawn) [m-methylphenyl, X = OH, reference compound] | – | 0.05 to 0.1 | – |
| Cc1oc(-c2ccccc2F)nc1Cc1cc2cc(CC3SC(=O)NC3=O)ccc2o1 (stereo not drawn) [o-fluorophenyl, X = H, 5-[(2-(2-(2-fluorophenyl)-5-methyl-4-oxazolyl)methyl)-5-benzofuranylmethyl]-2,4-thiazolidinedione] | 0.01 | – | – |
| Cc1oc(-c2ccccc2F)nc1C(O)c1cc2cc(CC3SC(=O)NC3=O)ccc2o1 (stereo not drawn) [o-fluorophenyl, X = OH, reference compound] | – | 0.50 | – |
| Cc1ccccc1-c1nc(Cc2cc3cc(CC4SC(=O)NC4=O)ccc3o2)c(C)o1 (stereo not drawn) [o-methylphenyl, X = H] | 0.05 | – | – |
| Cc1ccccc1-c1nc(C(O)c2cc3cc(CC4SC(=O)NC4=O)ccc3o2)c(C)o1 (stereo not drawn) [o-methylphenyl, X = OH, reference compound] | – | > 1 | – |
| Cc1oc(-c2ccc(Cl)cc2)nc1Cc1cc2cc(CC3SC(=O)NC3=O)ccc2o1 (stereo not drawn) [p-chlorophenyl, X = H, 5-[(2-(2-(4-chlorophenyl)-5-methyl-4-oxazolyl)methyl)-5-benzofuranylmethyl]-2,4thiazolidinedione] | 0.05 | – | – |
| Cc1ccc(-c2nc(Cc3cc4cc(CC5SC(=O)NC5=O)ccc4o3)c(C)o2)cc1 (stereo not drawn) [p-methylphenyl, X = H, 5-[(2-(5-methyl-2-(4-methylphenyl)-4-oxazolyl)-methyl)-5-benzofuranylmethyl]-2,4-thiazolidinedione] | 0.05 | – | – |
| Cc1oc(-c2ccccc2)nc1Cc1cc2cc(CC3SC(=O)NC3=O)ccc2o1 (stereo not drawn) [phenyl, X = H, 5-[(2-(5-Methyl-2-phenyl-4-oxazolyl)methyl)-5-benzofuranylmethyl]-2,4-thiazolidinedione] | 0.01 | – | – |
| Cc1oc(-c2ccccc2)nc1C(O)c1cc2cc(CC3SC(=O)NC3=O)ccc2o1 (stereo not drawn) [phenyl, X = OH, 5-[(2-(5-Methyl-2-phenyl-4-oxazolyl)hydroxymethyl)-5-benzofuranylmethyl]-2,4-thiazolidinedione, reference compound] | – | 0.25 | – |
| CC1(COc2ccc(CC3SC(=O)NC3=O)cc2)CCCCC1 (stereo not drawn) [positive control, ciglitazone, reference compound] | – | – | glucose level of positive control animals (positive control (50 mg/kg) of ciglitazone, daily for five days, vehicle e.g. 250 mg/dl): ~130 mg/dL |
| Cc1oc(C(C)(C)C)nc1Cc1cc2cc(CC3SC(=O)NC3=O)ccc2o1 (stereo not drawn) [tert-butyl, X = H, 5-[(2-(5-methyl-2-(1,1-dimethylethyl)-4-oxazolyl)-methyl)-5-benzofuranylmethyl]-2,4-thiazolidinedione] | 0.10 | – | – |
